Source: patent publication US20240199676A1, “ANTIVIRAL COMPOUNDS AND METHODS OF MAKING AND USING THE SAME” (Gilead Sciences, Inc., priority 2022, published 2024)

Legend:
[1] = tested on: Respiratory syncytial virus recombinant with luciferase (RSV-Luc5) in NHBE cells; assay: NHBE RSV-Luc5 384-well Assay (RSV FLUC NHBE 384 V2, Ex. W); assay type: cell-based; conditions: human respiratory syncytial virus, 72 h, read-out: EC50 RSV FLUC NHBE 384 V2 (per Ex. W)
Text: Example W: NHBE RSV-Luc5 384-well Assay (EC50 RSVFLUC NHBE-384)
Normal Human Bronchial Epithelial (NHBE) cells were purchased from Lonza (Walkersville, MD Cat #CC2540) and maintained in BEGM Bronchial Epithelial Cell Growth Medium BulletKit (Lonza CC-3170).
Cells were thawed, expanded, and were used for experiments at passage 2. Respiratory syncytial virus recombinant with luciferase (RSV-Luc5) (≥1×10^7 Infectious Units/mL (IU/mL) determined by TCID50) was purchased from Microbiologics (Saint Cloud, MN). Viral replication was determined in NHBE cells in the following manner.
(§1) Compounds are prepared in 100% DMSO in 384-well polypropylene plates (Greiner, Monroe, NC, Cat #784201) with 8 compounds per plate in grouped replicates of 4 at 10 serially diluted concentrations (1:3). The serially diluted compounds were transferred to low dead volume Echo plates (Labcyte, Sunnyvale, CA, Cat #LP-0200).
The test compounds were spotted to 384-well assay plates (Greiner, Monroe, NC, Cat#781091) at 200 nL per well using an Echo acoustic dispenser (Labcyte, Sunnyvale, CA). NHBE cells were harvested and suspended in BEGM Bronchial Epithelial Cell Growth Medium BulletKit and seeded to the pre-spotted assay plates at 5,000 cells per well in 30 μL. RSV-Luc5 virus was diluted in BEGM Bronchial Epithelial Cell Growth Medium BulletKit at 500,000 Infectious Units (IU) per mL and 10 μL per well was added to the assay plates containing cells and compounds, for an MOI of 1. The assay plates were incubated for 3 days at 37° C. and 5% CO2. At the end of incubation, One-Glo reagent (Promega, Madison, WI, Cat #E6120) was prepared. The assay plates and One-Glo reagent were equilibrated to room temperature for at least 15 minutes. 40 μL per well of One-Glo reagent was added and the plates were incubated at room temperature for 15 minutes before reading the luminescence signal on an EnVision multimode plate reader (Perkin Elmer, Waltham, MA). Remdesivir was used as positive control and DMSO was used as negative control. Values were normalized to the positive and negative controls (as 0% and 100% replication, respectively) and data was fitted using non-linear regression analysis by Gilead's dose response tool. The EC50 value for each compound was defined as the concentration reducing the viral replication by 50%.

[2] = tested on: Human Rhinovirus 16 (HRV16) in H1-HeLa cells; assay: H1-HeLa HRV-CTG 384-well Assay (Ex. Y), HRV16; assay type: cell-based; conditions: Rhinovirus A, 96 h; H1-HeLa cells, HRV16 MOI 0.25, 4 days, Celltiter-Glo; read-out: EC50 H1-HeLa_HRV16_HRV-CTG 384-well Assay (per Ex. Y)
Text: Example Y: H1-HeLa HRV-CTG 384-well Assay
H1-Hela cell line (ATCC, Manassas, VA, Cat #CRL-1958) was maintained in Dulbecco's […] (DMEM) (Corning, New York, NY, Cat #15-018CM) supplemented with 10% fetal bovine serum (FBS) (Hyclone, Logan, UT, Cat #SH30071-03), and 1× Penicillin-Streptomycin-L-Glutamine (Corning, New York, NY, Cat #30-009-CI). Cells were passaged 2 times per week to maintain sub-confluent densities and were used for experiments at passage 5-30. The Human Rhinovirus 1B (HRV1B) (ATCC, Manassas, VA, Cat #VR-1645) , Human Rhinovirus 14 (HRV14) (ATCC, Manassas, VA, Cat #VR-284), and Human Rhinovirus 16 (HRV16) (ATCC, Manassas, VA, Cat #BR-283) was obtained through ATCC. Viral infection was monitored by determining viability of H1-HeLa cells as described below.
as §1, with “Test molecules” for “Compounds”
The test compounds were spotted to 384-well assay plates (Greiner, Monroe, NC, Cat#781091) at 200 nL per well using an Echo acoustic dispenser (Labcyte, Sunnyvale, CA). H1-HeLa cells were harvested and suspended in DMEM (supplemented with 2% FBS and 1× Penicillin-Streptomycin-L-Glutamine) and seeded to the pre-spotted assay plates at 5,000 cells per well in 30 μL. HRV1B, HRV14, and HRV16 was diluted in DMEM (supplemented with 2% FBS and 1× Penicillin-Streptomycin-L-Glutamine) at 97.1 million Infectious Units (IU) per mL, 151 million IU per mL and 221 million IU per mL respectively. 10 μL of virus per well was added to the assay plates containing cells and compounds, for an MOI of 0.5, 1.0, and 0.25 respectively. The assay plates were incubated for 4 days at 37° C. and 5% CO2. At the end of incubation, Celltiter-Glo (Promega, Madison, WI, Cat #(Ga7573) was prepared. The assay plates and Celltiter-Glo reagent were equilibrated to room temperature for at least 15 minutes. 40 μL per well of Celltiter-Glo reagent was added and the plates were incubated at room temperature for 15 minutes before reading the luminescence signal on an EnVision multimode plate reader (Perkin Elmer, Waltham, MA). Rupintrivir was used as positive control and DMSO was used as negative control. Values were normalized to the positive and negative controls (as 0% and 100% replication, respectively) and data was fitted using non-linear regression analysis by Gilead's dose response tool. The EC50 value for each compound was defined as the concentration reducing viral replication by 50%.

Row | SMILES | EC50 [1] | EC50 [2]
1 | CC(C)C(=O)OC[C@@]1(C#N)O[C@@H](c2ccc3c(N)ncnn23)[C@H](O)[C@@H]1O [Compound 1, ((2R,3S,4R,5S)-5-(4-aminopyrrolo[2,1-f][1,2,4]triazin-7-yl)-2-cyano-3,4-dihydroxytetrahydrofuran-2-yl)methyl isobutyrate] | 14.4 µM | 9.31 µM
2 | N#C[C@]1(COC(=O)c2ccccc2)O[C@@H](c2ccc3c(N)ncnn23)[C@H](O)[C@@H]1O [Compound 2, ((2R,3S,4R,5S)-5-(4-aminopyrrolo[2,1-f][1,2,4]triazin-7-yl)-2-cyano-3,4-dihydroxytetrahydrofuran-2-yl)methyl benzoate] | 9.31 µM | 28.3 µM
3 | CC(C)CC(=O)OC[C@@]1(C#N)O[C@@H](c2ccc3c(N)ncnn23)[C@H](O)[C@@H]1O [Compound 3, ((2R,3S,4R,5S)-5-(4-aminopyrrolo[2,1-f][1,2,4]triazin-7-yl)-2-cyano-3,4-dihydroxytetrahydrofuran-2-yl)methyl 3-methylbutanoate] | 8.55 µM | 13.2 µM
4 | CC(=O)OC[C@@]1(C#N)O[C@@H](c2ccc3c(N)ncnn23)[C@H](O)[C@@H]1O [Compound 4, ((2R,3S,4R,5S)-5-(4-aminopyrrolo[2,1-f][1,2,4]triazin-7-yl)-2-cyano-3,4-dihydroxytetrahydrofuran-2-yl)methyl acetate] | 10.7 µM | 10.1 µM
5 | CCC(=O)OC[C@@]1(C#N)O[C@@H](c2ccc3c(N)ncnn23)[C@H](O)[C@@H]1O [Compound 5, ((2R,3S,4R,5S)-5-(4-aminopyrrolo[2,1-f][1,2,4]triazin-7-yl)-2-cyano-3,4-dihydroxytetrahydrofuran-2-yl)methyl propionate] | 7.78 µM | 9.84 µM
6 | CCCC(=O)OC[C@@]1(C#N)O[C@@H](c2ccc3c(N)ncnn23)[C@H](O)[C@@H]1O [Compound 6, ((2R,3S,4R,5S)-5-(4-aminopyrrolo[2,1-f][1,2,4]triazin-7-yl)-2-cyano-3,4-dihydroxytetrahydrofuran-2-yl)methyl butyrate] | 7.69 µM | 8.23 µM
7 | N#C[C@]1(COC(=O)C2CC2)O[C@@H](c2ccc3c(N)ncnn23)[C@H](O)[C@@H]1O [Compound 7, ((2R,3S,4R,5S)-5-(4-aminopyrrolo[2,1-f][1,2,4]triazin-7-yl)-2-cyano-3,4-dihydroxytetrahydrofuran-2-yl)methyl cyclopropanecarboxylate] | 10.7 µM | 30.7 µM
8 | N#C[C@]1(COC(=O)C2CCC2)O[C@@H](c2ccc3c(N)ncnn23)[C@H](O)[C@@H]1O [Compound 8, ((2R,3S,4R,5S)-5-(4-aminopyrrolo[2,1-f][1,2,4]triazin-7-yl)-2-cyano-3,4-dihydroxytetrahydrofuran-2-yl)methyl cyclobutanecarboxylate] | 10.1 µM | 7.74 µM
9 | CCC(CC)C(=O)OC[C@@]1(C#N)O[C@@H](c2ccc3c(N)ncnn23)[C@H](O)[C@@H]1O [Compound 9, ((2R,3S,4R,5S)-5-(4-aminopyrrolo[2,1-f][1,2,4]triazin-7-yl)-2-cyano-3,4-dihydroxytetrahydrofuran-2-yl)methyl 2-ethylbutanoate] | 9.47 µM | 35.1 µM
10 | CC(C)(C)C(=O)OC[C@@]1(C#N)O[C@@H](c2ccc3c(N)ncnn23)[C@H](O)[C@@H]1O [Compound 10, ((2R,3S,4R,5S)-5-(4-aminopyrrolo[2,1-f][1,2,4]triazin-7-yl)-2-cyano-3,4-dihydroxytetrahydrofuran-2-yl)methyl pivalate] | 7.87 µM | 14.3 µM
11 | CCC(CC)C(=O)Nc1ncnn2c([C@@H]3O[C@](C#N)(COC(=O)C(CC)CC)[C@@H](O)[C@H]3O)ccc12 [Compound 11, ((2R,3S,4R,5S)-2-cyano-5-(4-(2-ethylbutanamido)pyrrolo[2,1-f][1,2,4]triazin-7-yl)-3,4-dihydroxytetrahydrofuran-2-yl)methyl 2-ethylbutanoate] | 24.6 µM | 50 µM
12 | CC(C)[C@H](N)C(=O)OC[C@@]1(C#N)O[C@@H](c2ccc3c(N)ncnn23)[C@H](O)[C@@H]1O [Compound 12, ((2R,3S,4R,5S)-5-(4-aminopyrrolo[2,1-f][1,2,4]triazin-7-yl)-2-cyano-3,4-dihydroxytetrahydrofuran-2-yl)methyl L-valinate] | 10.7 µM | 8.82 µM
13 | CC(C)(C)CC(=O)OC[C@@]1(C#N)O[C@@H](c2ccc3c(N)ncnn23)[C@H](O)[C@@H]1O [Compound 13, ((2R,3S,4R,5S)-5-(4-aminopyrrolo[2,1-f][1,2,4]triazin-7-yl)-2-cyano-3,4-dihydroxytetrahydrofuran-2-yl)methyl 3,3-dimethylbutanoate] | 8.59 µM | 50 µM
14 | Cc1ccc(C(=O)OC[C@@]2(C#N)O[C@@H](c3ccc4c(N)ncnn34)[C@H](O)[C@@H]2O)cc1 [Compound 14, ((2R,3S,4R,5S)-5-(4-aminopyrrolo[2,1-f][1,2,4]triazin-7-yl)-2-cyano-3,4-dihydroxytetrahydrofuran-2-yl)methyl 4-methylbenzoate] | 9.6 µM | 23.8 µM
15 | CC1(C(=O)OC[C@@]2(C#N)O[C@@H](c3ccc4c(N)ncnn34)[C@H](O)[C@@H]2O)CC1 [Compound 15, ((2R,3S,4R,5S)-5-(4-aminopyrrolo[2,1-f][1,2,4]triazin-7-yl)-2-cyano-3,4-dihydroxytetrahydrofuran-2-yl)methyl 1-methylcyclopropane-1-carboxylate] | 8.77 µM | 31.1 µM
16 | N#C[C@]1(COC(=O)CC2CCC2)O[C@@H](c2ccc3c(N)ncnn23)[C@H](O)[C@@H]1O [Compound 16, ((2R,3S,4R,5S)-5-(4-aminopyrrolo[2,1-f][1,2,4]triazin-7-yl)-2-cyano-3,4-dihydroxytetrahydrofuran-2-yl)methyl 2-cyclobutylacetate] | 8.36 µM | 7.15 µM
17 | CC1(C)CC(C(=O)OC[C@@]2(C#N)O[C@@H](c3ccc4c(N)ncnn34)[C@H](O)[C@@H]2O)C1 [Compound 17, ((2R,3S,4R,5S)-5-(4-aminopyrrolo[2,1-f][1,2,4]triazin-7-yl)-2-cyano-3,4-dihydroxytetrahydrofuran-2-yl)methyl 3,3-dimethylcyclobutane-1-carboxylate] | 8.7 µM | 7.57 µM
